Literature values as cited in PMC6843445, “Pharmacokinetic Properties of Fluorescently Labelled Hydroxypropyl-Beta-Cyclodextrin” (Biomolecules, 2019).
Like-named read-outs stand apart in the source and are kept apart here.

How the values were obtained:
[1] = design: method as in PMID 22552390; details: rats, subcutaneous long-term, daily dose of 200 mg/kg; ref [8]; cited from earlier work
Caco-2 cells = system: Caco-2 cells; design: method as in PMID 27317368, PMID 20434542; details: HPBCD with different DS; ref [6],[7]; cited from earlier work
[2] = design: method as in ref [4] = [4]; PMID 16018907; doi:10.1016/j.fct.2005.03.007; 4. Gould S. Scott R.C. 2-Hydroxypropyl-beta-cyclodextrin (HP-b-CD): A toxicology review Food Chem. Toxicol. 2005 43 1451 1459 10.1016/j.fct.2005.03.007 16018907; details: rats; ref [4]; cited from earlier work
[3] = design: method as in PMID 23611577; details: pigs, 2 week 0.25–0.5 g/kg/infusion; ref [9]; cited from earlier work
[4] = design: method as in ref [4],[27] = [4]; PMID 16018907; doi:10.1016/j.fct.2005.03.007; 4. Gould S. Scott R.C. 2-Hydroxypropyl-beta-cyclodextrin (HP-b-CD): A toxicology review Food Chem. Toxicol. 2005 43 1451 1459 10.1016/j.fct.2005.03.007 16018907 || [27]; 27. Committee for Human Medicinal Products (CHMP), European Medicines Agency Cyclodextrins Used as Excipients. EMA/CHMP/333892/2013 9 10 2017 Available online: http://www.ema.europa.eu/docs/en_GB/docu; details: rats; ref [4],[27]; cited from earlier work
[5] = design: method as in ref [4] = [4]; PMID 16018907; doi:10.1016/j.fct.2005.03.007; 4. Gould S. Scott R.C. 2-Hydroxypropyl-beta-cyclodextrin (HP-b-CD): A toxicology review Food Chem. Toxicol. 2005 43 1451 1459 10.1016/j.fct.2005.03.007 16018907; details: dogs; ref [4]; cited from earlier work
[6] = design: method as in PMID 28803710; details: patients with NPC1, lumbar intrathecal; ref [2]; cited from earlier work
[7] = design: method as in PMID 27317368, PMID 20434542; details: HPBCD with different DS; ref [6],[7]; cited from earlier work
[8] = design: method as in ref [4] = [4]; PMID 16018907; doi:10.1016/j.fct.2005.03.007; 4. Gould S. Scott R.C. 2-Hydroxypropyl-beta-cyclodextrin (HP-b-CD): A toxicology review Food Chem. Toxicol. 2005 43 1451 1459 10.1016/j.fct.2005.03.007 16018907; details: rats, 4–7 days 225 mg/kg/day i.v.; ref [4]; cited from earlier work
[9] = design: method as in PMID 30521943; details: after 30 min; ref [21]; cited from earlier work

Compound	bone effect [1]	cytotoxicity on Caco-2 cells (Caco-2 cells)	organs with the highest HPBCD concentrations [2]	lung findings [3]	no observed adverse effect levels (NOAELs) [4] [mg/kg/day]	organs with the highest HPBCD concentrations [5]	disease progression [6]	hemolytic activity [7]	lung findings [8]	activity in the lung compared to other organs [9]
CC(O)COC[C@H]1O[C@@H]2O[C@H]3[C@H](O)[C@@H](O)[C@@H](O[C@H]4[C@H](O)[C@@H](O)[C@@H](O[C@H]5[C@H](O)[C@@H](O)[C@@H](O[C@H]6[C@H](O)[C@@H](O)[C@@H](O[C@H]7[C@H](O)[C@@H](O)[C@@H](O[C@H]8[C@H](O)[C@@H](O)[C@@H](O[C@H]1[C@H](O)[C@H]2O)O[C@@H]8COCC(C)O)O[C@@H]7COCC(C)O)O[C@@H]6COCC(C)O)O[C@@H]5COCC(C)O)O[C@@H]4COCC(C)O)O[C@@H]3COCC(C)O (stereo partly drawn) [HPBCD, 2-Hydroxypropyl-beta-cyclodextrin]	caused bone loss	no toxicity	kidneys and lung	inflammatory changes in the lung	50	kidneys and liver	slowed disease progression	low hemolytic activity	foamy macrophage infiltration of the lung	
^68Ga-labeled NODAGA-hydroxypropyl-beta-cyclodextrin [^68Ga-NODAGA-HPBCD]										relatively higher
